Test results from the Deep4Chem optical property database.

Test: solvent given as SMILES
[1] = in O=P(c1ccccc1)(c1ccccc1)c1ccccc1Oc1ccccc1P(=O)(c1ccccc1)c1ccccc1

Compound: COc1ccc(C2CC(c3ccc(O)cc3)=NN2c2ccc(S(N)(=O)=O)cc2)cc1 (stereo not drawn)
- emission maximum (in C1CCOC1): 417 nm
- emission maximum (in C1COCCO1): 418 nm
- emission maximum (in CC#N): 418 nm
- emission maximum (in CC(C)O): 423 nm
- emission maximum (in CCO): 429 nm
- emission maximum (in CCOC(C)=O): 416 nm
- emission maximum (in CN(C)C=O): 422 nm
- emission maximum (in CO): 432 nm
- emission maximum (in CS(C)=O): 425 nm
- emission maximum (in O): 448 nm

Compound: CCC1=C(C)C2=Cc3c4ccccc4c4n3[B-](c3ccc(OC)cc3)(Oc3ccccc3-4)[N+]2=C1C (stereo not drawn)
- emission maximum (in CC#N): 634 nm
- emission maximum (in CCCCCC): 635 nm
- emission maximum (in Cc1ccccc1): 641 nm
- emission maximum (in ClCCl): 639 nm

Compound: CN1/C(=C/C=C(/C=C/C2=[N+](C)c3ccccc3C2(C)C)c2ccc(C(F)(F)F)cc2)C(C)(C)c2ccccc21
- emission maximum (in CCO): 665 nm
- emission maximum (in CO): 659 nm
- emission maximum (in CS(C)=O): 665 nm
- emission maximum (in O): 658 nm

Compound: CCCCCCCCOc1ccc(-c2c3c4n(c(-c5ccc(OCCCCCCCC)cc5)c3c3n2[B-](F)(F)[n+]2c(sc5ccccc52)N=3)[B-](F)(F)[n+]2c(sc3ccccc32)N=4)cc1
- emission maximum (in ClC(Cl)Cl): 676 nm

Compound: c1ccc(-c2ccc(-c3ccccc3)cc2)cc1
- emission maximum (in C1CCOC1): 340 nm
- emission maximum (in C1COCCO1): 342 nm
- emission maximum (in CCO): 375 nm

Compound: COC(=O)c1noc(-c2ccccc2)c1Br
- emission maximum (in C1CCCCC1): 344 nm

Compound: Cc1ccccc1C1=C2C=c3c(oc4c3ccc3ccccc34)=[N+]2[B-](F)(F)n2c1cc1c3ccc4ccccc4c3oc12
- emission maximum (in C1CCCCC1): 625 nm
- emission maximum (in CCOC(C)=O): 626.5 nm
- emission maximum (in CO): 625 nm

Compound: CCCCCCN(CCCCCC)c1ccc(C#Cc2ccc(/C=C/c3ccc(-c4ccc(/C=C/c5ccc(C#Cc6ccc(N(CCCCCC)CCCCCC)cc6)cc5)cc4)cc3)cc2)cc1
- emission maximum (in Cc1ccccc1): 452 nm

Compound: c1cc2ccc3sc4ccc5cccc6c(c1)c2c3c4c56
- emission maximum (in ClC(Cl)Cl): 418 nm

Compound: CCCCCCCCOc1ccc(C#Cc2ccc3oc4ccccc4c3c2)c(OCCCCCCCC)c1
- emission maximum (in ClCCl): 373 nm

Compound: [O-][n+]1c(/C=C/c2ccc(/C=C/c3ccccc3)cc2)nc(N2CCOCC2)c2c1CCCC2
- emission maximum (in ClCCl): 531 nm

Compound: O=C1C2=C(O[B-](F)(F)[n+]3c2ccc2ccccc23)c2ccc(N3CCOCC3)c3cccc1c23
- emission maximum (in C1CCOC1): 545 nm
- emission maximum (in CC#N): 553 nm
- emission maximum (in CCO): 552 nm
- emission maximum (in CO): 558 nm
- emission maximum (in ClCCl): 544 nm

Compound: CCN1c2ccc(/C=N/Nc3ccccn3)cc2Sc2cc(-c3ccc(OC)cc3)ccc21
- emission maximum (in C1CCOC1): 491 nm
- emission maximum (in CS(C)=O): 503 nm
- emission maximum (in Cc1ccccc1): 484 nm
- emission maximum (in ClCCl): 497 nm

Compound: CCOC(=O)CCCCCn1c2ccc(Cl)cc2c(=O)c2cc3c(cc21)c(=O)c1cc(Cl)ccc1n3CCCCCC(=O)OCC
- emission maximum (in CO): 556 nm

Compound: Nc1ccc2cc(-c3ccc(C(F)(F)F)cc3)oc(=O)c2c1
- emission maximum (in CC(C)=O): 439 nm
- emission maximum (in CCCCCC): 418 nm
- emission maximum (in CCCCO): 460 nm
- emission maximum (in CCCO): 459 nm
- emission maximum (in CCO): 460 nm
- emission maximum (in CCOC(C)=O): 436 nm
- emission maximum (in CN(C)C=O): 448 nm
- emission maximum (in CO): 461 nm
- emission maximum (in ClC(Cl)Cl): 438 nm

Compound: c1ccc2c(c1)Cc1c-2sc2c1Cc1ccccc1-2
- emission maximum (in C1CCOC1): 385 nm

Compound: C1=Cc2ccccc2C(=Cc2ccc(C=C3c4ccccc4-c4ccccc43)cc2)c2ccccc21
- emission maximum (in C1CCOC1): 444 nm

Compound: CN(C)c1ccc2cc(C(/C=C/c3cn(C)c4ccccc34)=C(C#N)C#N)c(=O)oc2c1
- emission maximum (in C1CCOC1): 584 nm
- emission maximum (in C1COCCO1): 568 nm
- emission maximum (in CN(C)C=O): 539 nm
- emission maximum (in CS(C)=O): 555 nm
- emission maximum (in ClCCl): 583 nm

Compound: CN(C)c1ccc(-n2c(-c3ccncc3)nc3ccccc32)cc1
- emission maximum (in CC#N): 556 nm

Compound: N#CC(C#N)=Cc1ccc(-c2ccc(N(c3ccccc3)c3ccccc3)cc2)s1
- emission maximum (in ClC(Cl)Cl): 634 nm

Compound: F[B-]1(F)Oc2ccc3ccccc3c2-c2c3c(c4c([n+]21)CCc1ccccc1-4)CCc1ccccc1-3
- emission maximum (in ClCCl): 476 nm

Compound: CN(C)c1ccc(C2=[N+]3C(=Nc4c(-c5ccc(OCCCCS(=O)(=O)[O-])cc5)cc(-c5ccc(N(C)C)cc5)n4[B-]3(F)F)C(c3ccc(OCCCCS(=O)(=O)[O-])cc3)=C2)cc1
- emission maximum (in CS(C)=O): 826 nm

Compound: c1ccc2c(c1)CCc1ccccc1N2
- emission maximum (in CC#N): 354 nm
- emission maximum (in CCCCCC): 329 nm
- emission maximum (in CO): 359 nm

Compound: COC(=O)c1nc2cnc(N)nc2n1Cc1ccccc1
- emission maximum (in C1COCCO1): 386 nm
- emission maximum (in CC#N): 388 nm
- emission maximum (in CO): 412 nm
- emission maximum (in ClCCl): 379 nm
- emission maximum (in O): 420 nm

Compound: c1ccc(-c2cc(-c3ccccc3)cc(-c3ccc4c(c3)C3(c5ccccc5-4)c4ccccc4-c4c3c3c5ccccc5c(-c5cc(-c6ccccc6)cc(-c6ccccc6)c5)cc3c3ccccc43)c2)cc1 (stereo not drawn)
- emission maximum (in C1CCOC1): 440 nm

Compound: CCN(CC)c1ccc2c(c1)C(C)(C)C(=O)C=C2
- emission maximum (in O): 552 nm

Compound: O=Cc1ccc(-c2ccc(O)c(-c3nc4ccccc4s3)c2)o1
- emission maximum (in CCO): 550 nm
- emission maximum (in ClCCl): 553 nm
- emission maximum (in O): 564 nm

Compound: N#Cc1ccc(N/N=C/c2ccc3ccccc3c2O)cc1
- emission maximum (in CC#N): 446 nm
- emission maximum (in CCCCCC): 415 nm
- emission maximum (in CO): 482 nm
- emission maximum (in CS(C)=O): 456 nm
- emission maximum (in ClC(Cl)Cl): 425 nm

Compound: c1ccc(-n2c(-c3ccc(-n4c5ccccc5c5ccccc54)cc3)nc3nccnc32)cc1
- emission maximum (in CC#N): 490 nm

Compound: COc1ccc(/C=C/C2=CC(/C=C/c3ccc(OC)cc3)=[O+][B-](OC(C)=O)(OC(C)=O)O2)cc1
- emission maximum (in C1CCOC1): 518 nm
- emission maximum (in CC#N): 541 nm
- emission maximum (in CC(C)=O): 531 nm
- emission maximum (in CS(C)=O): 548 nm
- emission maximum (in Cc1ccccc1): 510 nm
- emission maximum (in ClC(Cl)Cl): 529 nm
- emission maximum (in ClCCl): 535 nm

Compound: CCN(C)c1ccc(C2=C3C(C)=CC(/C=C/c4ccc(OCCCN=[N+]=[N-])cc4)=[N+]3[B-](F)(F)n3c(C)cc(C)c32)cc1
- emission maximum (in CO): 586 nm

Compound: c1ccc(-c2cc3cccc4cc(-c5ccccc5)c5cc(-c6cc7[b-]8c(c6)c(-c6ccccc6)cc6cccc(cc7-c7ccccc7)[n+]86)cc2[b-]5[n+]34)cc1
- emission maximum (in C1CCCCC1): 521 nm

Compound: F[B-]1(F)OC(c2ccc(C(F)(F)F)cc2)=Cc2c3ccccc3cc[n+]21
- emission maximum (in ClC(Cl)Cl): 464.6 nm

Compound: CC1(C)CC(=O)c2ccccc2N1
- emission maximum (in CC#N): 439 nm
- emission maximum (in CCO): 483 nm

Compound: c1ccc(CO[Si]23n4c5c6ccccc6c4/N=C4N=C(/N=c6/c7ccccc7c(n62)=c2c6ccccc6c(n23)=N5)c2ccccc2\4)cc1 (stereo not drawn)
- emission maximum (in CN(C)C=O): 671 nm

Compound: N#Cc1ccc(-c2ccc(C3=CCC(c4ccccc4)CC3)s2)s1 (stereo not drawn)
- emission maximum (in C1CCOC1): 442 nm
- emission maximum (in CC#N): 448 nm
- emission maximum (in CCCCCC): 427 nm
- emission maximum (in CCO): 444 nm
- emission maximum (in OCCOCCO): 452 nm
- emission maximum (in c1ccncc1): 452 nm

Compound: CCCCNC(=O)c1nc2c(N(C)C)nc(N(C)C)nc2n1Cc1ccccc1
- emission maximum (in C1COCCO1): 392 nm
- emission maximum (in CC#N): 405 nm
- emission maximum (in CO): 424 nm
- emission maximum (in ClCCl): 402 nm

Compound: CN(C)c1ccc(/C=C/c2ccc3ccccc3[n+]2C)cc1
- emission maximum (in CC#N): 618 nm
- emission maximum (in ClCCl): 645 nm
- emission maximum (in O): 622 nm

Compound: CCCCC(CC)Cn1c2cc(C#N)ccc2c2cc(-c3ccc(N(c4ccccc4)c4ccccc4)cc3)c(C#N)cc21 (stereo not drawn)
- emission maximum (in C1CCCCC1): 444 nm
- emission maximum (in C1CCOC1): 507 nm
- emission maximum (in CC#N): 548 nm
- emission maximum (in CCCCOCCCC): 464 nm
- emission maximum (in CCN(CC)CC): 461.69 nm
- emission maximum (in CCOC(C)=O): 463 nm
- emission maximum (in CCOCC): 501 nm
- emission maximum (in CN(C)C=O): 543 nm
- emission maximum (in Cc1ccccc1): 474 nm
- emission maximum (in ClC=C(Cl)Cl): 477 nm
- emission maximum (in ClCCl): 517 nm

Compound: CC(C)(C)c1ccc2c(c1)c1cc(C(C)(C)C)ccc1n2-c1ccc(C(=CC#N)c2ccc(-n3c4ccc(C(C)(C)C)cc4c4cc(C(C)(C)C)ccc43)cc2)cc1
- emission maximum (in Cc1ccccc1): 450 nm

Compound: CN(C)c1ccc(-c2nc(C#N)c(C#N)n2C)cc1
- emission maximum (in C1CCCCC1): 375 nm
- emission maximum (in CC#N): 519 nm
- emission maximum (in CO): 427 nm
- emission maximum (in ClC(Cl)Cl): 437 nm

Compound: CC(C)(C)c1ccc2c(c1)Sc1cc(C(C)(C)C)ccc1N2c1ccc2c(ccc3nc4ccc5cc(N6c7ccc(C(C)(C)C)cc7Sc7cc(C(C)(C)C)ccc76)ccc5c4nc32)c1
- emission maximum (in C1CCCCC1): 575 nm
- emission maximum (in Cc1ccccc1): 682 nm

Compound: N#C[Se]CCCCCOc1ccc2ccc(=O)oc2c1
- emission maximum (in C1CCCCC1): 378 nm
- emission maximum (in C1CCOC1): 391 nm
- emission maximum (in C1COCCO1): 386 nm
- emission maximum (in CC#N): 387 nm
- emission maximum (in CCCCCCC): 391 nm
- emission maximum (in CCO): 386 nm
- emission maximum (in CN(C)C=O): 396 nm
- emission maximum (in CO): 391 nm
- emission maximum (in O): 397 nm
- emission maximum (in OCCO): 392 nm

Compound: CCCCCCCCCCCCN1C(=O)c2ccc3c4ccc5c6c(ccc(c7ccc(c2c37)C1=O)c64)C(=O)NC5=O
- emission maximum (in CN(C)C=O): 535 nm

Compound: c1ccc(-c2nc(-c3ccccc3)nc(-c3ccc(-n4c5ccccc5c5c6c(ccc54)-c4ccccc4C6(c4ccccc4)c4ccccc4)cc3)n2)cc1
- emission maximum (in C1CCOC1): 504.15 nm
- emission maximum (in CCCCCC): 407.03 nm
- emission maximum (in Cc1ccccc1): 446 nm
- emission maximum (in ClCCl): 530.05 nm
- emission maximum [1]: 475 nm

Compound: CCN(CC)c1ccc(-c2nc3c(c4c2-c2ccccc2CC4)-c2ccccc2CC3)cc1
- emission maximum (in C1CCOC1): 452 nm
- emission maximum (in CC#N): 463 nm
- emission maximum (in CCCCCC): 425 nm
- emission maximum (in CCOC(C)=O): 449 nm
- emission maximum (in CO): 461 nm
- emission maximum (in CS(C)=O): 470 nm
- emission maximum (in Cc1ccccc1): 437 nm
- emission maximum (in ClCCl): 449 nm

Compound: c1ccc(-c2nc(-c3ccc(N4c5ccccc5C(c5ccccc5)(c5ccccc5)c5ccccc54)cc3)cc(-c3ccccn3)n2)cc1
- emission maximum (in Cc1ccccc1): 460 nm
- emission maximum [1]: 468 nm

Compound: Cc1cc(C)nc(N)n1
- emission maximum (in CCO): 337 nm
- emission maximum (in CO): 339 nm
- emission maximum (in O): 342 nm

Compound: COc1ccc2c(c1)CCc1c(-c3ccccc3)c3n(c1-2)[B-](F)(F)[N+]1=C2C=NC=CN2[B-](F)(F)[N+]1=C3
- emission maximum (in ClCCl): 576 nm
